Usually IC50 stands for the concentration that inhibits the measured activity by half. Higher therefore signals weaker potency.

Chain of human Cat S (P25774 115-331): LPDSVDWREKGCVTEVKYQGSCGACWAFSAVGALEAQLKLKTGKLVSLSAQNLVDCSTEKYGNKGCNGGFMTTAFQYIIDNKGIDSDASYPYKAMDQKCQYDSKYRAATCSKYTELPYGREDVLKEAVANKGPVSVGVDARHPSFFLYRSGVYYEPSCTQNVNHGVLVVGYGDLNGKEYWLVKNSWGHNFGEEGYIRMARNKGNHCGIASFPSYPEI

This assay has as its target human Cat S (Homo sapiens (Human), UniProt P25774). The experiment in a line: Cathepsin enzyme inhibition assay (fluorogenic peptide substrate Z-Val-Val-Arg-AMC). It counts as biochemical. Conditions: enzyme 1 nM, substrate 20 μM, pH 6.5. The method, then:
Cathepsin Enzyme Inhibition Assay
Enzyme activity is measured by observing the increase in fluorescence intensity caused by cleavage of a peptide substrate containing a fluorophore whose emission is quenched in the intact peptide.
Assay buffer: 100 mM potassium phosphate pH 6.5, EDTA-Na 5 mM, Triton X-100 0.001%, DTT 5 mM.
Enzymes (all at 1 nM): human and mouse Cathepsin S, Cat K, Cat B, Cat L.
Substrate (20 μM): Z-Val-Val-Arg-AMC, except for Cat K which uses Z-Leu-Arg-AMC (both from Bachem).
AMC=7-Amino-4-Methyl-Coumarin.
Excitation 360 nm, Emission 465 nm.
Enzyme is added to the substance dilutions in 96-well microtitre plates and the reaction is started with substrate. […] IC50 are calculated by standard methods.
Inhibition of human Cat S, mouse Cat S, human Cat K, human Cat B, human Cat L and mouse Cat L have been measured separately.
Take `N#CC1(NC(=O)[C@@H]2C[C@@H](S(=O)(=O)c3ccc(-c4ccc5c(c4)OC(F)(F)O5)cc3C(F)(F)F)CN2C(=O)C2(C(F)(F)F)CC2)CC1` [Example 45, (2S,4R)-4-[4-(2,2-Difluoro-benzo[1,3]dioxol-5-yl)-2-trifluoromethyl-benzenesulfonyl]-1-(1-trifluoromethyl-cyclopropanecarbonyl)-pyrrolidine-2-carboxylic acid (1-cyano-cyclopropyl)-amide]: the IC50 turned out to be 1.07 nM.

Consider `Cc1nc(C)c(-c2ccc(S(=O)(=O)[C@@H]3C[C@@H](C(=O)NC4(C#N)CC4)N(C(=O)C4(C(F)(F)F)CC4)C3)c(C(F)(F)F)c2)s1` [Example 48, (2S,4R)-4-[4-(2,4-Dimethyl-thiazol-5-yl)-2-trifluoromethyl-benzenesulfonyl]-1-(1-trifluoromethyl-cyclopropanecarbonyl)-pyrrolidine-2-carboxylic acid (1-cyano-cyclopropyl)-amide], for which the IC50 came out at 1.17 nM. `Cc1nc(C)c(-c2ccc(S(=O)(=O)[C@@H]3C[C@@H](C(=O)NC4(C#N)CC4)N(C(=O)C4(C(F)(F)F)CC4)C3)cc2)s1` [Example 49, (2S,4R)—N-(1-cyanocyclopropyl)-4-(4-(2,4-dimethylthiazol-5-yl)phenylsulfonyl)-1-(1-(trifluoromethyl)cyclopropanecarbonyl)pyrrolidine-2-carboxamide] registered an IC50 of 0.909 nM.

As to `Cc1ncc(-c2ccc(S(=O)(=O)[C@@H]3C[C@@H](C(=O)NC4(C#N)CC4)N(C(=O)C4(C(F)(F)F)CC4)C3)cc2)s1` [Example 50, (2S,4R)—N-(1-cyanocyclopropyl)-4-(4-(2-methylthiazol-5-yl)phenylsulfonyl)-1-(1-(trifluoromethyl)cyclopropanecarbonyl)pyrrolidine-2-carboxamide], it took 0.728 nM to reach half-maximal inhibition (IC50). For `COc1ncc(-c2ccc(S(=O)(=O)[C@@H]3C[C@@H](C(=O)NC4(C#N)CC4)N(C(=O)C4(C(F)(F)F)CC4)C3)cc2)cn1` [Example 51, (2S,4R)—N-(1-cyanocyclopropyl)-4-(4-(2-methoxypyrimidin-5-yl)phenylsulfonyl)-1-(1-(trifluoromethyl)cyclopropanecarbonyl)pyrrolidine-2-carboxamide], the concentration for half-maximal inhibition (IC50) was determined as 0.882 nM. Consider `Cc1ncnn1-c1ccc(S(=O)(=O)[C@@H]2C[C@@H](C(=O)NC3(C#N)CC3)N(C(=O)C3(C(F)(F)F)CC3)C2)c(Cl)c1` [Example 52, (2S,4R)-4-(2-chloro-4-(5-methyl-1H-1,2,4-triazol-1-yl)phenylsulfonyl)-N-(1-cyanocyclopropyl)-1-(1-(trifluoromethyl)cyclopropanecarbonyl)pyrrolidine-2-carboxamide], for which the IC50 worked out at 0.486 nM. The compound `N#CC1(NC(=O)[C@@H]2C[C@@H](S(=O)(=O)c3ccc(-n4ccnn4)cc3C(F)(F)F)CN2C(=O)C2(C(F)(F)F)CC2)CC1` [Example 54, (2S,4R)-4-(4-[1,2,3]Triazol-1-yl-2-trifluoromethyl-benzenesulfonyl)-1-(1-trifluoromethyl-cyclopropanecarbonyl)-pyrrolidine-2-carboxylic acid (1-cyano-cyclopropyl)-amide] came in with an IC50 of 0.382 nM. Regarding `Cc1noc(C)c1-c1ccc(S(=O)(=O)[C@@H]2C[C@@H](C(=O)NC3(C#N)CC3)N(C(=O)C3(C(F)(F)F)CC3)C2)cc1` [Example 55, (2S,4R)—N-(1-cyanocyclopropyl)-4-(4-(3,5-dimethylisoxazol-4-yl)phenylsulfonyl)-1-(1-(trifluoromethyl)cyclopropanecarbonyl)pyrrolidine-2-carboxamide], the IC50 came out at 1.44 nM.

Turning to `N#CC1(NC(=O)[C@@H]2C[C@@H](S(=O)(=O)c3ccc(-c4cnn(C(F)F)c4)cc3C(F)(F)F)CN2C(=O)C2(C(F)(F)F)CC2)CC1` [Example 56, (2S,4R)-4-[4-(1-Difluoromethyl-1Hpyrazol-4-yl)-2-trifluoromethyl-benzenesulfonyl]-1-(1-trifluoromethyl-cyclopropanecarbonyl)-pyrrolidine-2-carboxylic acid (1-cyano-cyclopropyl)-amide], inhibition was half-maximal at 0.526 nM (IC50). Turning to `Cc1nnn(-c2ccc(S(=O)(=O)[C@@H]3C[C@@H](C(=O)NC4(C#N)CC4)N(C(=O)C4(C(F)(F)F)CC4)C3)c(C(F)(F)F)c2)n1` [Example 57, (2S,4R)-4-[4-(5-Methyl-tetrazol-2-yl)-2-trifluoromethyl-benzenesulfonyl]-1-(1-trifluoromethyl-cyclopropanecarbonyl)-pyrrolidine-2-carboxylic acid (1-cyano-cyclopropyl)-amide], the IC50 turned out to be 0.564 nM. In the case of `N#CC1(NC(=O)[C@@H]2C[C@@H](S(=O)(=O)c3ccc(-c4c[nH]nc4C(F)(F)F)cc3C(F)(F)F)CN2C(=O)C2(C(F)(F)F)CC2)CC1` [Example 58, (2S,4R)-1-(1-Trifluoromethyl-cyclopropanecarbonyl)-4-[2-trifluoromethyl-4-(3-trifluoromethyl-1Hpyrazol-4-yl)-benzenesulfonyl]-pyrrolidine-2-carboxylic acid (1-cyano-cyclopropyl)-amide], 2.42 nM corresponded to half-maximal inhibition (IC50). `Cc1cc(-c2ccccc2CO)ccc1S(=O)(=O)[C@@H]1C[C@@H](C(=O)NC2(C#N)CC2)N(C(=O)C2(C(F)(F)F)CC2)C1` [Example 59, (2S,4R)—N-(1-cyanocyclopropyl)-4-(2′-(hydroxymethyl)-3-methylbiphenyl-4-ylsulfonyl)-1-(1-(trifluoromethyl)cyclopropanecarbonyl)pyrrolidine-2-carboxamide] yielded an IC50 of 0.943 nM.

The compound `Cc1nc(C)c(-c2ccc(S(=O)(=O)[C@@H]3C[C@@H](C(=O)NC4(C#N)CC4)N(C(=O)C4(C(F)(F)F)CC4)C3)c(C)c2)s1` [Example 60, (2S,4R)—N-(1-cyanocyclopropyl)-4-(4-(2,4-dimethylthiazol-5-yl)-2-methylphenylsulfonyl)-1-(1-(trifluoromethyl)cyclopropanecarbonyl)pyrrolidine-2-carboxamide] came in with an IC50 of 0.614 nM. To `Cc1ncc(-c2ccc(S(=O)(=O)[C@@H]3C[C@@H](C(=O)NC4(C#N)CC4)N(C(=O)C4(C(F)(F)F)CC4)C3)c(C)c2)s1` [Example 61, (2S,4R)—N-(1-cyanocyclopropyl)-4-(2-methyl-4-(2-methylthiazol-5-yl)phenylsulfonyl)-1-(1-(trifluoromethyl)cyclopropanecarbonyl)pyrrolidine-2-carboxamide] belongs 0.613 nM; to `COc1ncc(-c2ccc(S(=O)(=O)[C@@H]3C[C@@H](C(=O)NC4(C#N)CC4)N(C(=O)C4(C(F)(F)F)CC4)C3)c(C)c2)cn1` [Example 62, (2S,4R)—N-(1-cyanocyclopropyl)-4-(4-(2-methoxypyrimidin-5-yl)-2-methylphenylsulfonyl)-1-(1-(trifluoromethyl)cyclopropanecarbonyl)pyrrolidine-2-carboxamide], 0.592 nM. Consider `Cc1ncc(-c2ccc(S(=O)(=O)[C@@H]3C[C@@H](C(=O)NC4(C#N)CC4)N(C(=O)C4(C(F)(F)F)CC4)C3)c(C(F)(F)F)c2)s1` [Example 63, (2S,4R)-4-[4-(2-Methyl-thiazol-5-yl)-2-trifluoromethyl-benzenesulfonyl]-1-(1-trifluoromethyl-cyclopropanecarbonyl)-pyrrolidine-2-carboxylic acid (1-cyano-cyclopropyl)-amide], for which the IC50 turned out to be 0.585 nM. In turn, `Cc1cc(-c2c(C)noc2C)ccc1S(=O)(=O)[C@@H]1C[C@@H](C(=O)NC2(C#N)CC2)N(C(=O)C2(C(F)(F)F)CC2)C1` [Example 64, (2S,4R)—N-(1-cyanocyclopropyl)-4-(4-(3,5-dimethylisoxazol-4-yl)-2-methylphenylsulfonyl)-1-(1-(trifluoromethyl)cyclopropanecarbonyl)pyrrolidine-2-carboxamide] gave an IC50 of 0.65 nM.

With `Cc1cc(-n2cnc(Cl)n2)ccc1S(=O)(=O)[C@@H]1C[C@@H](C(=O)NC2(C#N)CC2)N(C(=O)C2(C(F)(F)F)CC2)C1` [Example 66, (2S,4R)-4-(4-(3-chloro-1H-1,2,4-triazol-1-yl)-2-methylphenylsulfonyl)-N-(1-cyanocyclopropyl)-1-(1-(trifluoromethyl)cyclopropanecarbonyl)pyrrolidine-2-carboxamide], the IC50 was 223 nM.

As to `Cc1cc(-n2cnc(Cl)n2)ccc1S(=O)(=O)[C@@H]1C[C@H](C(=O)NC2(C#N)CC2)N(C(=O)C2(C(F)(F)F)CC2)C1` [Example 67, (2R,4R)-4-(4-(3-chloro-1H-1,2,4-triazol-1-yl)-2-methylphenylsulfonyl)-N-(1-cyanocyclopropyl)-1-(1-(trifluoromethyl)cyclopropanecarbonyl)pyrrolidine-2-carboxamide], the IC50 was found to be 542 nM. On to `Cn1cc(-c2ccc(S(=O)(=O)[C@@H]3C[C@@H](C(=O)NC4(C#N)CC4)N(C(=O)C4(C(F)(F)F)CC4)C3)c(C(F)(F)F)c2)c(C(F)(F)F)n1` [Example 68, (2S,4R)-4-[4-(1-Methyl-3-trifluoromethyl-1Hpyrazol-4-yl)-2-trifluoromethyl-benzenesulfonyl]-1-(1-trifluoromethyl-cyclopropanecarbonyl)-pyrrolidine-2-carboxylic acid (1-cyano-cyclopropyl)-amide], for which the IC50 turned out to be 0.829 nM. Take `N#CC1(NC(=O)[C@@H]2C[C@@H](S(=O)(=O)c3ccc(-n4cnc(Cl)n4)cc3)CN2C(=O)C2(C(F)(F)F)CC2)CC1` [Example 69, (2S,4R)-4-(4-(3-chloro-1H-1,2,4-triazol-1-yl)phenylsulfonyl)-N-(1-cyanocyclopropyl)-1-(1-(trifluoromethyl)cyclopropanecarbonyl)pyrrolidine-2-carboxamide]: the IC50 amounted to 497 nM.
